From PubChem BioAssay AID330 (DTP/NCI, 2004)
“And” between values parts separate entries of the source, which are not always exact repeats. Identical values can stand only once. Inconclusive results and toxic doses are left out. Rule for the calls: active = survival T/C of 150% or more; inactive = T/C below 125% in these data.

Test system: P388 leukemia ip, CD2F1 mice, survival T/C
Assay: NCI In Vivo Anticancer Drug Screen. Data for tumor model P388 Leukemia (intraperitoneal) in CD2F1 (CDF1) mice
Details: endpoint: median survival time, higher = longer survival
How it was run: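 Mice carrying the transplanted tumor received test compound or vehicle. Survival was recorded in each group, and the value is the treated-group measurement divided by that of the vehicle-treated control group.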

[1] = dose: 60.0 mg/kg/injection, schedule: Q01DX005 (ip), vehicle: Klucel (hydroxypropylcellulose) (HPC)
[2] = dose: 120.0 mg/kg/injection, schedule: Q01DX005 (ip), vehicle: Klucel (hydroxypropylcellulose) (HPC)
[3] = dose: 240.0 mg/kg/injection, schedule: Q01DX005 (ip), vehicle: Klucel (hydroxypropylcellulose) (HPC)

Measured: T/C

OCC1OC(n2cc(I)c3c2ncn2ccnc32)C(O)C1O (centres undefined)
inactive: dose: 1.56 mg/kg/injection, schedule: Q01DX009 (ip), vehicle: water 98 % of control | dose: 3.13 mg/kg/injection, schedule: Q01DX009 (ip), vehicle: water 102 % of control | dose: 6.25 mg/kg/injection, schedule: Q01DX009 (ip), vehicle: water 100 % of control | dose: 12.5 mg/kg/injection, schedule: Q01DX009 (ip), vehicle: water 102 % of control | dose: 25.0 mg/kg/injection, schedule: Q01DX009 (ip), vehicle: water 106 % of control

COc1ccc(C(O)C2CCCN(c3ccccc3)S2(=O)=O)cc1 (centres undefined)
inactive: dose: 100.0 mg/kg/injection, schedule: Q01DX001 (ip), vehicle: saline with Tween-80 101 % of control | dose: 200.0 mg/kg/injection, schedule: Q01DX001 (ip), vehicle: saline with Tween-80 94 % of control | dose: 400.0 mg/kg/injection, schedule: Q01DX001 (ip), vehicle: saline with Tween-80 98 % of control

COC(=O)[C@@]12OC[C@]34[C@H]([C@@H](O)[C@@H]1O)[C@@]1(C)CC(=O)C(O)=C(C)[C@@H]1C[C@H]3OC(=O)[C@H](OC(=O)/C=C(/C)C(C)(C)O)[C@@H]24
inactive: dose: 0.25 mg/kg/injection, schedule: Q01DX009 (ip), vehicle: saline + alcohol 113 % of control and 115 % of control | dose: 0.5 mg/kg/injection, schedule: Q01DX009 (ip), vehicle: saline + alcohol 115 % of control (2×) and 124 % of control
active: dose: 8.0 mg/kg/injection, schedule: Q01DX009 (ip), vehicle: saline + alcohol 162 % of control

CN(C)C(C)(C#N)C(N)=O (centres undefined)
inactive: dose: 1.56 mg/kg/injection, schedule: Q04DX003 (ip), vehicle: saline 103 % of control and 93 % of control | dose: 3.12 mg/kg/injection, schedule: Q04DX003 (ip), vehicle: saline 101 % of control | dose: 6.25 mg/kg/injection, schedule: Q04DX003 (ip), vehicle: saline 100 % of control and 96 % of control and 98 % of control

COc1cc(CC2COC(O)C2(O)Cc2ccc(O)c(OC)c2)ccc1O (centres undefined)
inactive: dose: 8.25 mg/kg/injection, schedule: Q01DX005 (ip), vehicle: Klucel (hydroxypropylcellulose) (HPC) 101 % of control | dose: 16.5 mg/kg/injection, schedule: Q01DX005 (ip), vehicle: Klucel (hydroxypropylcellulose) (HPC) 101 % of control | dose: 33.0 mg/kg/injection, schedule: Q01DX005 (ip), vehicle: Klucel (hydroxypropylcellulose) (HPC) 106 % of control | dose: 66.0 mg/kg/injection, schedule: Q01DX005 (ip), vehicle: Klucel (hydroxypropylcellulose) (HPC) 92 % of control

COC1(OC)C2(Cl)CC3C4(C)OC(Cl)(C31Cl)C42Cl (centres undefined)
inactive: [1] 105 % of control | [2] 101 % of control | [3] 100 % of control

COc1ccccc1C1OC2=C(Nc3ccccc3N2)C1=O (centres undefined)
inactive: dose: 30.0 mg/kg/injection, schedule: Q01DX005 (ip), vehicle: Klucel (hydroxypropylcellulose) (HPC) 101 % of control | [1] 97 % of control and 98 % of control | [2] 91 % of control | [3] 92 % of control

CCCCNC(=O)C1CC2c3cccc4c3c(cn4C)CC2N(C)C1 (centres undefined)
inactive: dose: 25.0 mg/kg/injection, schedule: Q01DX001 (ip), vehicle: saline 102 % of control | dose: 50.0 mg/kg/injection, schedule: Q01DX001 (ip), vehicle: saline 105 % of control

CC(C)(C)c1cc(C(c2ccc3c(c2)OCO3)N2CCOCC2)c(O)c(C(C)(C)C)c1 (centres undefined)
inactive: dose: 60.0 mg/kg/injection, schedule: Q01DX005 (ip), vehicle: saline with Tween-80 100 % of control | dose: 120.0 mg/kg/injection, schedule: Q01DX005 (ip), vehicle: saline with Tween-80 100 % of control | dose: 240.0 mg/kg/injection, schedule: Q01DX005 (ip), vehicle: saline with Tween-80 100 % of control

Oc1ccc2ccccc2c1-c1c(OC(c2ccccc2)c2ccccc2)ccc2ccccc12
inactive: dose: 100.0 mg/kg/injection, schedule: Q04DX003 (ip), vehicle: saline with Tween-80 102 % of control | dose: 200.0 mg/kg/injection, schedule: Q04DX003 (ip), vehicle: saline with Tween-80 94 % of control | dose: 400.0 mg/kg/injection, schedule: Q04DX003 (ip), vehicle: saline with Tween-80 102 % of control

C1CCCCCC2OC2CCCC1 (centres undefined)
inactive: dose: 50.0 mg/kg/injection, schedule: Q04DX003 (ip), vehicle: Klucel (hydroxypropylcellulose) (HPC) 107 % of control | dose: 100.0 mg/kg/injection, schedule: Q04DX003 (ip), vehicle: Klucel (hydroxypropylcellulose) (HPC) 112 % of control | dose: 200.0 mg/kg/injection, schedule: Q04DX003 (ip), vehicle: Klucel (hydroxypropylcellulose) (HPC) 107 % of control

Cc1cc(C)cc(OC(=O)/C=C/C(=O)Oc2cc(C)cc(C)c2)c1
inactive: dose: 100.0 mg/kg/injection, schedule: Q01DX009 (ip), vehicle: saline with Tween-80 90 % of control | dose: 200.0 mg/kg/injection, schedule: Q01DX009 (ip), vehicle: saline with Tween-80 90 % of control | dose: 400.0 mg/kg/injection, schedule: Q01DX009 (ip), vehicle: saline with Tween-80 90 % of control
